Measured values published in patent US10494341B2, “Compound containing indoleacetic acid core structure and use thereof” (Beijing An Jian Xi Bio-Medical Technology Co., Ltd., priority 2015, dated 2019).

How the values were obtained:
[1] = tested on: colon cancer cells (SW480); conditions: SW480 tumors in nude mice; for effect on tumor / on sensitivity of tumor to doxorubicin: doxorubicin 2.5 mg/kg i.p. every 2 days for 5 weeks, agents daily
Experimental: The experiment was carried out using compound a in this example. Under sterile conditions, a suspension of colon cancer cells (SW480) in logarithmic growth phase (cell concentration was adjusted to 1×10^7/mL with physiological saline) was inoculated subcutaneously to 5 to 6 weeks old balb/c female nude mice on the right rear back, and each nude mice was inoculated at an amount of 0.3 ml, i.e. the number of cells contained was 3×10^6 per each mouse. 10 days later, subcutaneous transplanted tumor of 100-250 mm^3 appeared. The nude mice with tumor were randomly divided into several groups, each containing 6 mice: (1) control group; (2) doxorubicin group; (3) doxorubicin+amifostine; (4) doxorubicin+Celecoxib+intermediate II; (5) doxorubicin+intermediate I+intermediate II; (6) doxorubicin+low-dose compound a (6 mg/kg/day); (7) doxorubicin+high-dose compound a (15 mg/kg/day). Firstly, the following compounds were administered to each group of nude mice with tumor according to the following doses: intermediate I and intermediate II (3 mg/kg/day respectively), amifostine (400 mg/kg/day), Celecoxib (6 mg/kg/day). Except that amifostine was subcutaneously injected (30 minutes before irradiation), the other protective agents were administered by gavage. The above drugs were administered every day for 5 weeks continuously. 12 hours after the administration, doxorubicin (2.5 mg/kg) was injected intraperitoneally, and it was administered once every 2 days for 5 weeks. During the dosing period, the body weight of the nude mice was measured every two days with a precision electronic balance. The growth of the tumor and whether or not red and swelling and rupture occur were observed every day after inoculation. After tumor formation, the surface morphology and activity of the transplanted tumor were examined, and the longest diameter (a) and the shortest diameter (b) of the tumor nodules were measured every 3 days with a vernier caliper. […] 21 days after administration of doxorubicin, the tail vein blood of mice was collected to perform leukocyte count and blood biochemical index analysis. The tumor tissue and normal peripheral tissues were taken on the last day of treatment, and the content of the intermediate I therein was measured by HPLC (FIG. 9a). At the same time, paraffin sections were made, the occurrence of apoptosis was detected by terminal labeling (FIG. 9b), and the relative survival percentages of normal tissue and tumor tissue were calculated (the results are summarized in FIG. 9b).

[2] = tested on: HT-29 cells; test: HT-29 transplanted tumors in nude mice, compound a in combination with doxorubicin; type: in vivo; conditions: Doxorubicin 2 mg/kg/week i.p. or compound a 3 mg/kg/day gavage, 4 weeks
Experimental: Compound a was administered by gavage once a day for 4 weeks continuously; Doxorubicin was injected intraperitoneally once a week for 4 weeks. Body weight and tumor volume of animals were measured and calculated according to Example 9.

[3] = tested on: mice (C57BL/6J); test: Survival rate of mice irradiated by γ-rays; type: in vivo; conditions: 30th day after 8.75 Gy γ-rays, 16 mice per group; for number of survived mice: intermediates each 3 mg/kg/day gavage; for survival rate: compounds 6 mg/kg/day gavage, amifostine 400 mg/kg/day i.p.
Experimental: In this experiment, 10-week-old male mice (C57BL/6J) weighing about 20 g were used as subjects, and 16 mice were taken as a group. The mice were divided into the following groups: 1. no γ-ray+no drug; 2. γ-ray+no drug; 3. γ-ray+amifostine; 4. γ-ray+intermediate I+intermediate II; 5. γ-ray+compound a; 6. γ-ray+compound b; and 7. γ-ray+compound d. Firstly, each group of mice was administered with a protective agent, and the specific amounts were as follows: compound a, b and d: 6 mg/kg/day (8.1 μM), amifostine: 400 mg/kg/day (1.5 mM), intermediate I+Intermediate II: each 3 mg/kg/day (8.1 μM). Except that amifostine was intraperitoneally injected (30 minutes before irradiation, amifostine was administered), the other protective agents were administered by gavage. 12 hours after administration, systemic irradiation was performed using cobalt 60γ-rays at a dose of 8.75Gy and a dose rate of 0.35 Gy/min for 25 minutes, with the radiation source 80 cm away from the mice. The mice were irradiated once, and continuously administered with drugs once daily for 10 days after irradiation. The number of survival mice was recorded. The percentage obtained by dividing the number of survival mice by the total number of mice in the experimental group (16 mice) is survival rate of mice, and the results are summarized in FIG. 7. […] It is noteworthy that in the experimental group using intermediate I+intermediate II, only one mouse is survived.

[4] = tested on: peripheral leukocytes; test: Protection against blood cell (leukocyte) damage induced by paclitaxel; type: in vivo; conditions: mice, paclitaxel; amifostine 400 mg/kg/day i.p.
Experimental: In this experiment, 10-week-old male mice (C57BL/6J) weighing about 20 grams were used as subjects, and 6 mice were taken as a group. The mice were divided into 5 groups: 1. Paclitaxel; 2. Paclitaxel+amifostine; 3. Paclitaxel+intermediate I+intermediate II; 4. paclitaxel+compound a; and 5. paclitaxel+compound b. Firstly, each group of mice was administered with a protective agent, and the specific amounts were as follows: compounds a and b: each 6 mg/kg/day (8.1 μM), amifostine: 400 mg/kg/day (1.5 mM), intermediate I+Intermediate II: each 3 mg/kg/day (8.1 μM). Except that amifostine was intraperitoneally injected (30 minutes before administering Paclitaxel, amifostine was administered), the other protective agents were administered by gavage (once a day, 25 times continuously). 12 hours after the compound a and the corresponding protective agents were administered, Paclitaxel was intraperitoneally injected (10 mg/kg/day, once every 3 days, 9 times continuously), and 7, 14, 21, 28 days later, blood of mice was drawn respectively. The number of leukocytes was analyzed.

[5] = tested on: A549 cells; test: A549 transplanted tumors in nude mice, compound used alone; type: in vivo; conditions: A549; cisplatin 5 mg/kg/week i.p.; compound a 5 and 25 mg/kg/day; intermediates 12.5 mg/kg/day each
Experimental: Except cisplatin (intraperitoneal injection, once a week), all compounds were administered by gavage, once a day for 5 weeks continuously.

[6] = biological target: T1, COX-1 in gastric mucosa (Rattus norvegicus, UniProt Q63921); test: COX-1 activity assay, gastric mucosa (thromboxane B2 EIA) after oral dosing of A23187-treated rats; type: in vivo; conditions: for reduction of inhibition against COX-1 in gastric mucosal tissue compared with intermediate I: gavage 1, 3, 9 mg/kg/day, intermediate I 0.5 mg/kg, 6 h after dosing; for effect of inhibiting COX-1 in gastric mucosa: gavage, A23187-activated
T1 construct: from tissue; host or cells: rat gastric mucosa (in vivo dosing, tissue homogenate supernatant)
T1 sequence (Q63921 27-602): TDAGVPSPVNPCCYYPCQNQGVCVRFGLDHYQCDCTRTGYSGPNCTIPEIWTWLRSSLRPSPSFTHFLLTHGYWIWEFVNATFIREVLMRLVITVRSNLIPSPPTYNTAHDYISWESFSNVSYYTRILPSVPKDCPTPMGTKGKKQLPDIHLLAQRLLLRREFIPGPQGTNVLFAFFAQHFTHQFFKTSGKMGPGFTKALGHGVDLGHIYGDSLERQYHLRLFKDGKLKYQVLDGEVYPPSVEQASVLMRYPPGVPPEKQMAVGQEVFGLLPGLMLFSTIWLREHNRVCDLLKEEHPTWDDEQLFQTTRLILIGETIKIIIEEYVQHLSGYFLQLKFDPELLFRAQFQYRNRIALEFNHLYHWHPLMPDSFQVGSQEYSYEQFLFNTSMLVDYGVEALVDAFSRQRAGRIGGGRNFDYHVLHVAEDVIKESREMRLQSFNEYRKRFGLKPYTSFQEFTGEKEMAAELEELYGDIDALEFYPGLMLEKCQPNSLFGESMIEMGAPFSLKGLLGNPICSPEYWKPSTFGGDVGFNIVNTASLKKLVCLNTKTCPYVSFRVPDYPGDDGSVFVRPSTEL
Experimental: (1) COX-1 activity assay: 2 hours after intraperitoneal injection of calcium ionophore A23187 (50 mg/kg) to rats, each of the compounds a, b, c, d, e and f was orally administered (gavage) to three rats at a dose of 1, 3 and 9 mg/kg/day, respectively; the intermediate I was orally administered as a control drug to three rats at a dose of 0.5 mg/kg; and additional three rats were only administered with COX-1 activator, the calcium ionophore A23187, and were not administered with the compounds of the present invention. 6 hours after the compound of the present invention was administered, the animals were sacrificed, gastric mucosal tissue and myocardial tissue were collected, homogenized, and subjected to high-speed centrifugation (12,000 rpm), and the supernatant was collected for use. The amount of thromboxane B2 was measured using an enzyme-linked immunosorbent assay (EIA) kit (operated in accordance with the instructions provided by the manufacturer) and converted to COX1 activity.
(§1) The percentage inhibition rate against COX-1 (FIG. 1a—gastric mucosa, FIG. 1b—myocardium) and COX-2 (FIG. 1c) and the IC50 values (Table 1a—gastric mucosa; Table 1b—myocardium) of each tested pharmaceutical compound were calculated from the above data.

[7] = biological target: T2, COX-2 (Rattus norvegicus, UniProt P35355); test: COX-2 activity assay (PGE2 in gastric mucosa, EIA) in LPS-treated rats; type: in vivo; conditions: gavage, LPS 2.5 mg/kg-activated
T2 construct: from tissue; host or cells: rat gastric mucosa (LPS-treated rats, in vivo dosing)
T2 sequence (P35355 18-604): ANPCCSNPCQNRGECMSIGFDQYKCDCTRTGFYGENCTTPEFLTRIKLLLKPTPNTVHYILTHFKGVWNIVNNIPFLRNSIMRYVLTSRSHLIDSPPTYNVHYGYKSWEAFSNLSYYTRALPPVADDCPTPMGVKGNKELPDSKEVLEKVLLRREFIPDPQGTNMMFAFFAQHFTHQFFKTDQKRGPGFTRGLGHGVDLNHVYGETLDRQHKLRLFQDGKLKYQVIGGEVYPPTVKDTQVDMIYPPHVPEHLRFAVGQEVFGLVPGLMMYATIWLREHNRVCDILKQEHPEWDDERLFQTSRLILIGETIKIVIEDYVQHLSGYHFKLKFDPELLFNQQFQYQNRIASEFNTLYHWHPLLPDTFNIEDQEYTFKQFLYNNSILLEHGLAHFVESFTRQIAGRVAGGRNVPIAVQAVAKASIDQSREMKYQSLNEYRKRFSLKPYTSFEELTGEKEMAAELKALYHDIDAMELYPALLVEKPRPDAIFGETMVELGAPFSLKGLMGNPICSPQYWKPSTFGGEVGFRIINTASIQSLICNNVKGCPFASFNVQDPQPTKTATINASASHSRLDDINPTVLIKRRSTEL
Experimental: (2) COX-2 activity assay: The assay was similar to that of COX-1, except that LPS was injected intraperitoneally to rats at a dose of 2.5 mg/kg to activate COX-2 in this experiment. After administration, the content of PGE2 in gastric mucosa was measured using an enzyme-linked immunosorbent assay (EIA) kit (operated according to the instructions provided by the manufacturer) and converted to COX2 activity.
as §1

Row | SMILES | effect on tumor / on sensitivity of tumor to doxorubicin [1] | number of survived mice [3] [mice] | survival rate [3] [%] | reduction of inhibition against COX-1 in gastric mucosal tissue compared with intermediate I [6] [fold] | effect of inhibiting COX-1 in gastric mucosa [6] | inhibition against COX-2 [7] | further results
1 | COc1cccc2c1C(=O)c1c(O)c3c(c(O)c1C2=O)C[C@@](O)(C(=O)CO)C[C@@H]3O[C@H]1C[C@H](N)[C@H](O)[C@H](C)O1 [Doxorubicin] | mild inhibitory effect |  |  |  |  |  | death of animals during treatment ([1]; doxorubicin 2.5 mg/kg i.p., 6 mice per group): three; inhibition of the tumor, administered alone [2]: only slightly inhibited
2 | NCCCNCCSP(=O)(O)O [amifostine, reference compound] | significantly interferes with the inhibitory effect of doxorubicin on the tumor | 10 | 62.5 |  |  |  | protective effect on leukocytes at the early stage of simulated chemotherapy [4]: slight better than that of the compounds a and b; protection of normal tissue and cells from doxorubicin ([1]; with doxorubicin): effectively protects the normal tissue
3 | N.N.[Cl][Pt][Cl] [cisplatin, reference compound] |  |  |  |  |  |  | inhibitory effect on the tumor [5]: only mild inhibitory effect
4 | COC1=C(OC)C(=O)C(CCCCCCCCCCOC(=O)CC2=C(C)C(=Cc3ccc([S+](C)[O-])cc3)c3cc(F)ccc32)=C(C)C1=O (centres unmarked) [compound c] |  |  |  | ~700 | almost lose the effect of inhibiting COX-1 in gastric mucosa | weaker than those of compounds a and b | 
5 | COc1c(O)c(C)c(CCCCCCCCCCOC(=O)CC2=C(C)C(=Cc3ccc([S+](C)[O-])cc3)c3cc(F)ccc32)c(O)c1OC (centres unmarked) [compound d] |  | 11 | 68.75 | ~700 | almost lose the effect of inhibiting COX-1 in gastric mucosa | weaker than those of compounds a and b | 
6 | COC1=C(OC)C(=O)C(COC(=O)Cc2c(C)n(C(=O)c3ccc(Cl)cc3)c3cc(OC)ccc23)=C(C)C1=O [compound f] |  |  |  | ~700 | almost lose the effect of inhibiting COX-1 in gastric mucosa | weaker than those of compounds a and b | 
